Literature values as cited in PubChem BioAssay AID1259409 (Chemical Carcinogenesis Research Information System (CCRIS), 2018).

Tested on: rodent chemically induced tumor inhibition, incidence and multiplicity
Experiment: CCRIS tumor inhibitor studies

NCCS(=O)(=O)O
tumour outcome (control, treated, inhibition, significance) (Carcinogen: AZOXYMETHANE, 25843-45-2, Dose [Inhibitor]: 0, 600 PPM IN DIET BEGINNING 2 WK PRIOR TO CARCINOGEN TREATMENT AND CONTINUING FOR DURATION OF STUDY (STUDY DURATION: 56, Route [Inhibitor]: ORAL, Species: RAT, Strain/Sex: F344/MALE, Target Tissue: Type of Lesion: COLON: INVASIVE ADENOCARCINOMA, Dose [Carcinogen]: 15 MG/KG 1/WK FOR 2 WK, Promoter: NONE USED): 34%, 16%, 53%, not significant | tumour outcome (control, treated, inhibition, significance) (Carcinogen: AZOXYMETHANE, 25843-45-2, Dose [Inhibitor]: 0, 600 PPM IN DIET BEGINNING 2 WK PRIOR TO CARCINOGEN TREATMENT AND CONTINUING FOR DURATION OF STUDY (STUDY DURATION: 56, Route [Inhibitor]: ORAL, Species: RAT, Strain/Sex: F344/MALE, Target Tissue: Type of Lesion: COLON: NONINVASIVE ADENOCARCINOMA, Dose [Carcinogen]: 15 MG/KG 1/WK FOR 2 WK, Promoter: NONE USED): 53%, 61%, -15%, not significant | tumour outcome (control, treated, inhibition, significance) (Carcinogen: AZOXYMETHANE, 25843-45-2, Dose [Inhibitor]: 0, 1200 PPM IN DIET BEGINNING 2 WK PRIOR TO CARCINOGEN TREATMENT AND CONTINUING FOR DURATION OF STUDY (STUDY DURATION: 5, Route [Inhibitor]: ORAL, Species: RAT, Strain/Sex: F344/MALE, Target Tissue: Type of Lesion: COLON: INVASIVE ADENOCARCINOMA, Dose [Carcinogen]: 15 MG/KG 1/WK FOR 2 WK, Promoter: NONE USED): 34%, 17%, 50%, not significant | tumour outcome (control, treated, inhibition, significance) (Carcinogen: AZOXYMETHANE, 25843-45-2, Dose [Inhibitor]: 0, 1200 PPM IN DIET BEGINNING 2 WK PRIOR TO CARCINOGEN TREATMENT AND CONTINUING FOR DURATION OF STUDY (STUDY DURATION: 5, Route [Inhibitor]: ORAL, Species: RAT, Strain/Sex: F344/MALE, Target Tissue: Type of Lesion: COLON: NONINVASIVE ADENOCARCINOMA, Dose [Carcinogen]: 15 MG/KG 1/WK FOR 2 WK, Promoter: NONE USED): 53%, 47%, 11%, not significant | tumour outcome (control, treated, inhibition, significance) (Carcinogen: DIETHYLNITROSAMINE, 55-18-5, Dose [Inhibitor]: 0, 2000 PPM IN DIET FOR 3 WK DURING INITIATION PHASE (STUDY DURATION: 24 WK), Route [Inhibitor]: ORAL, Species: RAT, Strain/Sex: F344/MALE, Target Tissue: Type of Lesion: LIVER: HEPATOCELLULAR ADENOMA, Dose [Carcinogen]: 100 MG/KG BW 1/WK FOR 3 WK, Promoter: PHENOBARBITAL, 50-06-6): 19/20 (95%), 12/19 (63%), 34%, p<0.02 | tumour outcome (control, treated, inhibition, significance) (Carcinogen: DIETHYLNITROSAMINE, 55-18-5, Dose [Inhibitor]: 0, 2000 PPM IN DIET FOR 3 WK DURING INITIATION PHASE (STUDY DURATION: 24 WK), Route [Inhibitor]: ORAL, Species: RAT, Strain/Sex: F344/MALE, Target Tissue: Type of Lesion: LIVER: HEPATOCELLULAR CARCINOMA, Dose [Carcinogen]: 100 MG/KG BW 1/WK FOR 3 WK, Promoter: PHENOBARBITAL, 50-06-6): 14/20 (70%), 13/19 (68%), 3%, not significant | tumour outcome (control, treated, inhibition, significance) (Carcinogen: DIETHYLNITROSAMINE, 55-18-5, Dose [Inhibitor]: 0, 2000 PPM IN DIET FOR 20 WK BEGINNING POST CARCINOGEN TREATMENT (STUDY DURATION: 24 WK), Route [Inhibitor]: ORAL, Species: RAT, Strain/Sex: F344/MALE, Target Tissue: Type of Lesion: LIVER: HEPATOCELLULAR ADENOMA, Dose [Carcinogen]: 100 MG/KG BW 1/WK FOR 3 WK, Promoter: NONE USED): 3/24 (13%), 4/18 (22%), -69%, not significant | tumour outcome (control, treated, inhibition, significance) (Carcinogen: DIETHYLNITROSAMINE, 55-18-5, Dose [Inhibitor]: 0, 2000 PPM IN DIET FOR 20 WK BEGINNING POST CARCINOGEN TREATMENT (STUDY DURATION: 24 WK), Route [Inhibitor]: ORAL, Species: RAT, Strain/Sex: F344/MALE, Target Tissue: Type of Lesion: LIVER: HEPATOCELLULAR ADENOMA, Dose [Carcinogen]: 100 MG/KG BW 1/WK FOR 3 WK, Promoter: PHENOBARBITAL, 50-06-6): 19/20 (95%), 7/21 (33%), 65%, p<0.0001 | tumour outcome (control, treated, inhibition, significance) (Carcinogen: DIETHYLNITROSAMINE, 55-18-5, Dose [Inhibitor]: 0, 2000 PPM IN DIET FOR 20 WK BEGINNING POST CARCINOGEN TREATMENT (STUDY DURATION: 24 WK), Route [Inhibitor]: ORAL, Species: RAT, Strain/Sex: F344/MALE, Target Tissue: Type of Lesion: LIVER: HEPATOCELLULAR CARCINOMA, Dose [Carcinogen]: 100 MG/KG BW 1/WK FOR 3 WK, Promoter: NONE USED): 7/24 (29%), 4/18 (22%), 24%, not significant | tumour outcome (control, treated, inhibition, significance) (Carcinogen: DIETHYLNITROSAMINE, 55-18-5, Dose [Inhibitor]: 0, 2000 PPM IN DIET FOR 20 WK BEGINNING POST CARCINOGEN TREATMENT (STUDY DURATION: 24 WK), Route [Inhibitor]: ORAL, Species: RAT, Strain/Sex: F344/MALE, Target Tissue: Type of Lesion: LIVER: HEPATOCELLULAR CARCINOMA, Dose [Carcinogen]: 100 MG/KG BW 1/WK FOR 3 WK, Promoter: PHENOBARBITAL, 50-06-6): 14/20 (70%), 13/21 (62%), 11%, not significant

CC(=O)O
tumour outcome (control, treated, inhibition, significance) (Dose [Inhibitor]: 0, 60 UMOL (MG) INJECTED WITH CARCINOGEN INTO THIGH OF BOTH HIND LIMBS (STUDY DURATION: 79 WK), Route [Inhibitor]: INTRAMUSCULAR, Species: RAT, Strain/Sex: F344/MALE, Target Tissue: Type of Lesion: INJECTION SITE: SARCOMA, Dose [Carcinogen]: 2.5 MG PER SITE INJECTED INTO THIGH OF BOTH HIND LIMBS, Promoter: NONE USED): 100%, 95%, 5%, not significant

CSc1ccc(O)cc1
tumour outcome (control, treated, inhibition, significance) (Carcinogen: BENZO[A]PYRENE, 50-32-8, Dose [Inhibitor]: 0.03 MMOL/G OF DIET DAILY STARTING 7 D BEFORE AND CONTINUING THROUGH 3 D AFTER CARCINOGEN TREATMENT FOLLOWED BY OBSERVAT, Route [Inhibitor]: ORAL, Species: MOUSE, Strain/Sex: ICR/FEMALE, Target Tissue: Type of Lesion: FORESTOMACH: NEOPLASM, Dose [Carcinogen]: 1 MG IN 0.2 ML CORN OIL 2/WK FOR 4 WK, Promoter: NONE USED): 100%, 89%, 11%, not significant

Nc1nc(-c2ccccc2)c(Br)c(=O)[nH]1
tumour outcome (control, treated, inhibition, significance) (Carcinogen: N-[4-(5-NITRO-2-FURYL)-2-THIAZOLYL]FORMAMIDE, 24554-26-5, Dose [Inhibitor]: 200 MG/KG IN CARBOXYMETHYL-CELLULOSE, POLYSORBATE 80, NACL AND BENZYL ALCOHOL, 2/WK BEGINNING ON DAY 30 OF CARCINOGEN TR, Route [Inhibitor]: INTRAGASTRIC, Species: MOUSE, Strain/Sex: C3H/FEMALE, Target Tissue: Type of Lesion: BLADDER: TRANSITIONAL CELL CARCINOMA, Dose [Carcinogen]: 0.13% IN DIET FOR 192 D, Promoter: NONE USED): 24/39 (62%), 6/43 (14%), 77%, p=0.0001 | tumour outcome (control, treated, inhibition, significance) (Carcinogen: N-[4-(5-NITRO-2-FURYL)-2-THIAZOLYL]FORMAMIDE, 24554-26-5, Dose [Inhibitor]: 200 MG/KG IN CARBOXYMETHYL-CELLULOSE, POLYSORBATE 80, NACL AND BENZYL ALCOHOL, 2/WK BEGINNING ON DAY 30 OF CARCINOGEN TR, Route [Inhibitor]: INTRAPERITONEAL, Species: MOUSE, Strain/Sex: C3H/FEMALE, Target Tissue: Type of Lesion: BLADDER: TRANSITIONAL CELL CARCINOMA, Dose [Carcinogen]: 0.13% IN DIET FOR 192 D, Promoter: NONE USED): 18/22 (82%), 5/9 (56%), 32%, p<0.2 | tumour outcome (control, treated, inhibition, significance) (Carcinogen: N-[4-(5-NITRO-2-FURYL)-2-THIAZOLYL]FORMAMIDE, 24554-26-5, Dose [Inhibitor]: 200 MG/KG IN CARBOXYMETHYL-CELLULOSE, POLYSORBATE 80, NACL AND BENZYL ALCOHOL, 2/WK BEGINNING ON DAY 150 OF CARCINOGEN T, Route [Inhibitor]: INTRAPERITONEAL, Species: MOUSE, Strain/Sex: C3H/FEMALE, Target Tissue: Type of Lesion: BLADDER: TRANSITIONAL CELL CARCINOMA, Dose [Carcinogen]: 0.13% IN DIET FOR 192 D, Promoter: NONE USED): 18/22 (82%), 17/19 (89%), -8%, p=0.489
